Results reported in patent publication US5270186A, “Antitumor antibiotic BMY-42448” (Bristol-Myers Squibb Company, priority 1991, dated 1993).
In brackets after ≈: the same amount, converted by molar mass.

What was measured:
P388 murine leukemia = test: In vivo P388 murine leukemia model, ip implant / ip treatment; design: species or system murine (CDF1 female mice); conditions: for median survival time: untreated controls 10 days
Description: (§1) BMY-42448 was also tested in vivo in the P388 murine leukemia model. When 1×10^6 leukemia cells are implanted ip into CDF1 female mice, the median survival time for untreated controls was 10 days. […] Mice treated with 45 or 15 mg/kg BMY-42448 on the same schedule had median survival time of 13.5 and 13 days, respectively. Each drug treatment group consisted of 4 mice. The positive control reference drug, olivomycin A, was dosed at 0.4 and 0.2 mg/kg once a day for 5 days beginning one day after implant, with median survival times of 16.5 and 16 days, respectively. Both drugs were administered via the intraperitoneal route. Thus, BMY-42448 was active in the ip/ip P388 model with a maximum tolerated dose of 45 mg/kg.

B-16 melanoma = test: In vitro cytotoxicity, crystal violet staining; type: cell-based, murine; conditions: for IC50: Mus musculus, B16, 72 h, B-16 melanoma, 3 days with drug
Description: (§2) A 150 μl aliquot of culture media containing 3750 cells was plated into each well of a 96 well microtiter plate on day 0 and allowed to attach by incubation for 24 hours at 37° C. in a 5% carbon dioxide atmosphere. Drugs were then added to the top row of the wells and serially diluted down the plate (except for the untreated control column on each plate). The cells and drug were incubated together as above for 3 days. Following incubation, dead unattached cells and media were removed by inverting the plate. Cells that are undamaged by the drug remain attached to the plate. […] The fixing solution was removed by inverting the plate and the plates were air-dried.

HCT-116 colon = test: In vitro cytotoxicity, crystal violet staining; type: cell-based, human; conditions: for IC50: Homo sapiens, 72 h, HCT-116 colon, 3 days with drug
Description: as §2

P388 tumor = test: iv-implanted P388 tumor model; type: in vivo, murine (CDF1 female mice)
Description: BMY-42448 was tested in an iv-implanted P388 tumor model. In this model 1×10^6 cells are implanted intravenously in CDF1 female mice. […] Mitomycin C given iv once at 3.2 mg/kg on the day after tumor implant extended median survival to 12 days after tumor implant. BMY-42448 was toxic when administered iv at 10 mg/kg every other day for 3 doses beginning one day after tumor implant.

[1] = In vivo P388 murine leukemia model, ip implant / ip treatment; design: species or system murine (CDF1 female mice); conditions: mouse, p388 leukemia model; ip once a day for 5 days; read-out: maximum tolerated dose
Description: as §1

| Molecule | median survival time (P388 murine leukemia; 0.2 mg/kg ip once a day for 5 days) | median survival time (P388 murine leukemia; 0.4 mg/kg ip once a day for 5 days) | IC50 (B-16 melanoma) | IC50 (HCT-116 colon) | median survival (P388 tumor; 3.2 mg/kg iv once on the day after tumor implant, untreated control 8 days) | activity on the B-16 melanoma cell line compared with reference drug (B-16 melanoma; compared with cisplatin) | activity on the HCT-116 colon cancer line compared with reference drug (HCT-116 colon; compared with mitomycin C) | MTD [1] | median survival time (P388 murine leukemia; 15 mg/kg ip once a day for 5 days) | median survival time (P388 murine leukemia; 45 mg/kg ip once a day for 5 days) | outcome (drug toxicity) (P388 murine leukemia; 135 mg/kg ip once a day for 5 days beginning 1 day after tumor implant) | activity in the ip/ip P388 model (P388 murine leukemia; ip implant, ip treatment) | median life span (P388 tumor; 1.25 mg/kg iv every other day for 3 doses, untreated control 8 days) | median life span (P388 tumor; 2.5 mg/kg iv every other day for 3 doses, untreated control 8 days) | median life span (P388 tumor; 5 mg/kg iv every other day for 3 doses, untreated control 8 days) | toxicity (P388 tumor; 10 mg/kg iv every other day for 3 doses beginning one day after tumor implant) | activity in iv-implanted P388 model (P388 tumor; 5, 2.5 or 1.25 mg/kg iv every other day for 3 doses) |
| --- | --- | --- | --- | --- | --- | --- | --- | --- | --- | --- | --- | --- | --- | --- | --- | --- | --- |
| olivomycin A [reference compound] | 16 days | 16.5 days |  |  |  |  |  |  |  |  |  |  |  |  |  |  |  |
| CO[C@@]12[C@H](COC(N)=O)C3=C(C(=O)C(C)=C(N)C3=O)N1C[C@@H]1N[C@@H]12 [Mitomycin C, reference compound] |  |  | 0.98 µg/mL (≈ 2.93 µM) | 0.25 µg/mL (≈ 0.748 µM) | 12 days |  |  |  |  |  |  |  |  |  |  |  |  |
| CCC1CC23OC(=O)C(=C2O)C(=O)C2(CC)C(C=CC4C(OC5CC(O)C(NC(=O)c6[nH]c(Cl)cc6Cl)C(C)O5)C(C)CCC42)CC=CCC=CC3(C)C=C1C(=O)O (stereo not shown) [BMY-42448] |  |  | 16 µg/mL (≈ 19 µM) | 0.25 µg/mL (≈ 0.297 µM) |  | equal to that of cisplatin | equivalent to that of mitomycin C | 45 mg/kg | 13 days | 13.5 days | died of drug toxicity | active | 8 days | 8 days | 8 days | toxic | inactive |
